ChEMBL document CHEMBL1148347, “Identification of non-phosphate-containing small molecular weight inhibitors of the tyrosine kinase p56 Lck SH2 domain via in silico screening against the pY + 3 binding site” (J Med Chem, 2004)
Active and inactive are the calls of the source. No cut-off for these calls is given here.

Key:
Mus musculus = organism: Mus musculus; experiment: Inhibition of [3H]-thymidine incorporation into murine mixed lymphocyte culture at 100 uM (Significant anti-proliferative activity); format: functional
[1] = molecular target: Tyrosine-protein kinase Lck (Homo sapiens, UniProt P06239); experiment: Dissociation constant for p56 Lck tyrosine kinase SH2 domain by fluorescence titration
Chain of Tyrosine-protein kinase Lck (P06239 whole entry, the tested form may be a part): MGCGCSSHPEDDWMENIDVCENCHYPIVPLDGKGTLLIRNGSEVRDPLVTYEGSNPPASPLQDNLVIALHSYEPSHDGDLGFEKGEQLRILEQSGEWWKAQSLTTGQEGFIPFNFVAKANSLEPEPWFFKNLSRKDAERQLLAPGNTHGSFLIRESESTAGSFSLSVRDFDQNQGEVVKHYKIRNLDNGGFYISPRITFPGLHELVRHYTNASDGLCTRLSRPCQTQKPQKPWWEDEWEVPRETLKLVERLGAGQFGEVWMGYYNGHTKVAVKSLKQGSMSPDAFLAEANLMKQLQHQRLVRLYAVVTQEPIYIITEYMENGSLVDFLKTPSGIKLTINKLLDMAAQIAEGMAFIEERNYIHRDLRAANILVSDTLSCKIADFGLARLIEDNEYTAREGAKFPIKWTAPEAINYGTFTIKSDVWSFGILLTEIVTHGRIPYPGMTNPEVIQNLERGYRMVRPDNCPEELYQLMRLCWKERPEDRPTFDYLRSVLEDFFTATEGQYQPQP

Kd [1] [µM]	Structure (SMILES)	inhibition (Mus musculus)
–	O=C(O)c1cccc(/N=C2\C(Cl)=C(O)OC2OC(=O)c2ccccc2)c1 (configuration not stated)	Active
–	COc1ccc(-n2c(SCC(=O)Nc3ccccc3OC)nc3nnc(C)c-3c2N)cc1	Active
–	Cc1ccc(NC(=O)c2cccc(NC(=O)c3ccccc3C(=O)O)c2)cc1C	Active
–	COc1ccc([N+](=O)[O-])cc1CSc1nnc(N)s1	Active
–	Cc1ccc(C(=O)O)cc1NC(=O)CCC(=O)O	Active
6	Cc1ccc(NC(=O)CN2C(=O)S/C(=C\c3ccc(-c4cc(C(=O)O)ccc4C)o3)C2=O)cc1	Active
–	O=C(O)CSc1cccnc1Sc1ccc(Cl)cc1	Active
–	O=C(NCc1cccs1)c1cccnc1SCc1cccc(Br)c1	Active
–	O=C(O)c1ccccc1SCc1cc(O)nc(O)n1	Active
–	COc1ccc(OC)c(NC(=O)CCNC(=O)Cn2cnc3ccccc3c2=O)c1	Active
–	O=C(O)CC1SC(N/N=C2/CCCc3ccccc32)=NC1=O (configuration not stated)	Active
